Experiments:
Assay type in all cases: cell-based, human
MDA‐MB‐231 = experiment: MTT cytotoxicity assay in MDA-MB-231; settings: compound alone, MTT, 48 h; read-out: IC50 (μM) in MDA‐MB‐231 (mean ± SD)
Method: (§1) TNBC cell lines (ER^−, PR^−, HER2^−)—MDA‐MB‐231 (ATCC HTB‐26) and MDA‐MB‐468 (ATCC HTB‐132) were procured from ATCC and cultured in Roswell Park Memorial Institute Media (RPMI‐1640) and Dulbecco's Modified Eagle's Medium (DMEM), respectively, supplemented with 10% FBS and 1% Penicillin–Streptomycin solution. Cells were maintained at 5% CO2 at 37°C in a humid atmosphere.[6], [26] The control cell line, Human Embryonic Kidney—HEK‐293 (ATCC CRL‐3216) was also obtained from ATCC and cultured in DMEM.[5], [25]
(§2) To evaluate the cytotoxicity profile of the potential EGFR inhibitors (compounds) against TNBC cell lines—MDA‐MB‐231, MDA‐MB‐468, and control cell line HEK293, cells were seeded at a cell density of 5 × 10^3 cells/well in complete medium onto 96‐well plates. Here, the non‐tumoral human embryonic kidney (HEK293) epithelial cells have been utilized as a control cell line to compare the IC50 values of the compounds between cancerous and non‐cancerous cell lines with a big therapeutic window. The use of HEK293 cells as compared to other non‐cancerous cell lines are easy to maintain in culture and the results obtained from HEK293 are highly reproducible and consistent.[27] Briefly, the cells were incubated at 37°C for 12 h to attain morphology. After 12 h, cells were serum starved by replacing the complete media with media containing 2% FBS to synchronize the cells. Post‐12 h of synchronization, cells were treated with an increasing concentration (0.1, 1, 10, 100 μM) of all the compounds (1a, 1b, 1c, 1d, 1e, 1f, 1g, 1h, 1i, 1j, 1k). Separately, TNBC cells were treated with increasing concentration (0.01, 0.1, 1 μM) of Doxorubicin (Sigma‐Aldrich, St Louis, MO, USA) in presence of the selected compounds (1c, 1e, 1g, 1h, 1j, and 1k) at 5 μM concentration or combination of selected compounds (1c, 1e, 1g, 1h, 1j, and 1k) at increasing concentration (1, 2.5, 5, 10 μM) in presence of Doxorubicin (0.01 μM) for 48 h. In addition, the CD24^+‐breast cancer cells and CD24^−/CD44^+‐breast CSC populations, being sorted by Magnetic Activated Cell Sorting (MACS) from MDA‐MB‐231 cells as described previously,[6] were also treated with increasing concentrations of Doxorubicin (0.01–1 μM), in the presence or absence of 1e (10–30 μM), or PD153035 (10 μM) (Sigma‐Aldrich, St Louis, MO, USA). MTT assay was performed to evaluate the cytotoxicity of these compounds against the TNBC cell lines, and the sorted populations as described previously.[6] All the experiments were performed thrice and the IC50 values of the compounds and Doxorubicin were calculated using GraphPad Prism software version 9 (San Diego, CA, USA). Similarly, the percent inhibition of the sorted cell populations by chemotherapeutic drug, doxorubicin in the absence/presence of potent compound 1e or standard EGFR inhibitor, PD153035 was evaluated utilizing GraphPad Prism Version 9 (San Diego, CA, USA).

MDA‐MB‐231 cells = experiment: Apoptosis assay, Hoechst 33342 staining; settings: MDA-MB-231, combinatorial treatment with doxorubicin, 48 h, vs other treatment groups
Method: MDA‐MB‐231 cells were seeded at a density of 3 × 10^4 cells/well and cultured on a coverslip for 24 h at 37°C followed by 12 h serum starvation in 6‐well plates. The cells were treated with Doxorubicin (0.01 and 0.1 μM) in the absence or presence of compounds—1c, 1e, 1g, 1h, 1j, and 1k and incubated for 48 h. Post‐treatment, the cells were fixed using 4% Paraformaldehyde and stained with Hoechst 33342 dye (2 mg/mL; Invitrogen, USA) for 30 min. Apoptotic cells were identified by visualizing the fragmentation and condensation of nuclei using a confocal microscope (Olympus, USA).[30]

[1] = system: CD24^+‐breast cancer cells; experiment: Cell migration (chemotaxis), Boyden-Chamber assay, sorted cells; settings: Doxorubicin 0.01 μM + 1e 5 μM vs 10% FBS
Method: (§3) TNBC cell lines—MDA‐MB‐231, MDA‐MB‐468, and the sorted CD24^+‐breast cancer cells, and CD24^−/CD44^+‐breast CSC populations from MDA‐MB‐231 [6] were seeded at a density of 1 × 10^6 cells/well to evaluate their migratory potential by Boyden‐Chamber assay. […] At the end of the treatment period, the cells were plated at a density of 5 × 10^3 cells/well in the upper chamber of the Boyden chamber assembly and 10% FBS in the lower chamber was used as a chemoattractant. Separately, the cells in the upper chamber were treated with Doxorubicin (0.01–0.1 μM) alone or with the potential EGFR inhibitors (compounds—1c, 1e, 1g, 1h, 1j, and 1k (5 μM) based on their low IC50 values) or a commercial EGFR inhibitor, PD153035 (10 μM) and incubated for 4 h followed by fixation and staining as described previously.[28], [29]

[2] = system: CD24^−/CD44^+‐breast CSC populations; experiment: as above; settings: sorted CD24^−/CD44^+ CSCs; Doxorubicin 0.01 μM + 1e 5 μM vs 10% FBS
Method: as §3

MDA‐MB‐468 = experiment: MTT cytotoxicity assay in MDA-MB-468
Method: as §1, §2

HEK‐293 = experiment: MTT cytotoxicity assay in control cell line HEK-293; settings: compound alone, non-tumoral control cell line, read-out: IC50 (μM) in HEK‐293 (mean ± SD)
Method: as §1, §2

[3] = system: BAX, BCL‐2, cytochrome‐C in MDA‐MB‐231 cells; experiment: Immunoblot analysis of apoptotic markers; settings: MDA-MB-231, doxorubicin 0.01 μM + compound 5 μM
Method: MDA‐MB‐231 cells were subjected to the treatment of doxorubicin (0.01 μM) in the absence/presence of the selected potent compounds—1c, 1e, 1g, 1h, 1j, and 1k at 5 μM concentration or a standard EGFR inhibitor, PD153035 (10 μM) for 48 h. Separately, TNBC cells—MDA‐MB‐231 were also treated with doxorubicin (0.01 and/or 0.1 μM) in the absence/presence of potent EGFR inhibitor/compound, 1e at 5 μM concentration or a standard EGFR inhibitor, PD153035 (10 μM) for 48 h. Cells were then lysed to isolate the total protein and subjected to SDS‐PAGE, transferred onto a poly (vinylidene difluoride) membrane, probing with primary antibodies (Table ST2) against apoptotic markers—BAX, BCL‐2, cytochrome‐C, and β‐actin followed by incubation with horseradish peroxidase‐conjugated secondary antibodies (CST, Waltham, MA, USA) as described previously.[6] Visualization was performed using G: Box (Syngene, Cambridge, UK).

With c1cncc(C(c2c[nH]c3ccccc23)c2c[nH]c3ccccc23)c1 [1e] the IC50 (MDA‐MB‐231) was 18.6 ± 1.84 µM, the “doxorubicin‐induced nuclear fragmentation (apoptosis)” value (MDA‐MB‐231 cells) was “markedly increased” and the migratory potential [1] was “significantly reduced”. For the same compound, the migratory potential [2] was “significantly reduced”, the “decrease in the IC50 of Doxorubicin in the presence of the compound” value (MDA‐MB‐468; MDA-MB-468, versus Doxorubicin alone) was 10 fold and the IC50 (MDA‐MB‐468; compound alone, MTT, 48 h, read-out: IC50 (μM) in MDA‐MB‐468 (mean ± SD)) was 36 ± 5.91 µM. The IC50 (HEK‐293) was 278 ± 13.5 µM, the BAX protein level ([3]; 48 h) was “elevation” and the BAX/BCL2 ratio ([3]; 48 h) was “elevation”. The BCL2 levels ([3]; 48 h) was “marked decrease” and the “doxorubicin‐induced expression of Cyt‐C” value ([3]; vs the other compounds) was “comparatively higher levels”.
